From PMC11549390, “Activity, structure, and diversity of Type II proline-rich antimicrobial peptides from insects” (EMBO Reports, 2024)
Where two headings read alike, the source gives them in different places. No end group written: not given here.

What was measured:
K. pneumoniae AR-0112 = format: cell-based, Klebsiella pneumoniae
Experimental: (§1) The minimal inhibitory concentration (MIC) test for the E. coli laboratory strain BL21 and the K. pneumoniae multi-drug-resistant clinical strain AR-0112 (CDC and FDA Antibiotic Resistance Isolate Bank) was performed using the broth microdilution method, adapted from a previously described procedure (Wiegand et al, [2008]). The MIC tests were conducted either in 33% Tryptic Soy Broth (TSB) (Berthold et al, [2013]), or in RPMI/Serum (prepared by combining Roswell Park Memorial Institute medium 1640, Mueller Hinton Broth, and fetal bovine serum in the proportion 100:5:20, v/v/v) (Belanger et al, [2020]).

E. coli BL21 = format: cell-based, Escherichia coli
Experimental: as §1

[1] = test system: E. coli strain BL21 cells transformed with the pRXG(UGA) plasmid; test: Stop codon readthrough assay (RFP-UGA-GFP reporter, drop-diffusion); format: cell-based, Escherichia coli; conditions: subinhibitory concentrations, M9 agar, 2 µL of 2 mM peptide, 37 °C 16 h, three independent experiments
Experimental: Figure 4 Newly identified PrAMPs cause stop codon readthrough in bacterial cells. Top: In-frame fused genes encoding the reporter proteins RFP and GFP in the pRXG plasmid (Monk et al, [2017]) are separated by an UGA stop codon. […] Api and the modified Api137 (Berthold et al, [2013]) were spotted for comparison. […] Shown are representative plates from three independent experiments.
Stop codon readthrough activity of PrAMPs was determined as previously described (Mangano et al, [2023]). Briefly, E. coli strain BL21 cells transformed with the pRXG(UGA) plasmid (Monk et al, [2017]) were plated as described above for the drop-diffusion test, except that the bacterial lawn was formed on M9 medium/agar plates supplemented with 50 µg/ml of Kan and 0.2% glucose. Peptide solutions (2 µL of 2 mM stocks) were applied. The plates were incubated at 37 °C for 16 h and imaged in Cy2 (GFP) or Cy3 (RFP) channels using the BioRad ChemiDoc Touch imaging system. The images were processed using Image Lab software (BioRad).

| Compound | MIC (K. pneumoniae AR-0112; AR-0112) | MIC (E. coli BL21; BL21) | further results |
| --- | --- | --- | --- |
| AHKPVYVPPPRPPHPRL [Nme2] | 2 µM | – | – |
| GNRPNIPTYIPRPRPPHPRL [Fva1] | – | – | MIC (K. pneumoniae AR-0112; K. pneumoniae AR-0112 (multi-drug-resistant clinical strain), 33% TSB, broth microdilution, performed in triplicate): 1 µM; MIC (K. pneumoniae AR-0112; K. pneumoniae AR-0112, RPMI/Serum (RPMI 1640:Mueller Hinton Broth:fetal bovine serum 100:5:20), broth microdilution, performed in triplicate): 16 µM; MIC (E. coli BL21; E. coli BL21, 33% TSB, broth microdilution, performed in triplicate): 0.125 µM; MIC (E. coli BL21; E. coli BL21, RPMI/Serum (RPMI 1640:Mueller Hinton Broth:fetal bovine serum 100:5:20), broth microdilution, performed in triplicate): 0.25 µM |
| GSKPVRPPPPIRPRPPHPRL [Btr1] | – | 0.25 µM | – |
| ALNRPVYVPPPRPPHPRL [Mge1] | 1 µM | – | – |
| SNRPVYIPPPRSPHPRL [Bvo1] | – | >64 µM | – |
| O=C(N[C@H](CO)[C@H](O)c1ccc([N+](=O)[O-])cc1)C(Cl)Cl [chloramphenicol] | – | – | Induction of stop codon readthrough (GFP halo) [1]: does not induce stop codon readthrough |
| GSRLMYLPPPPCSPYLHF [Baf1] | – | >64 µM | – |

More lines, main results first:

| MIC (K. pneumoniae AR-0112; AR-0112) | MIC (E. coli BL21; BL21) | Compound | further results |
| --- | --- | --- | --- |
| 2 µM | – | SNKPRPQQVPPRPPHPRL [Vma1] | – |
| – | 0.25 µM | GKPNKPRPAPIKPRPPHPRL [Pdi2] | – |
| 2 µM | – | NRPTYVPPPRPPHPRL [Ssp1] | – |
